Experimental data reported in the supplement of paper PMC13380429.

What was measured:
Settings in all cases: 72 h
Vero E6 [1] = test: drug sensitivity score (DSS) for viability; higher = more toxic; extreme values may be limits of the assay
U2OS [2] = test: as above
Caco-2 [3] = test: as above
Calu-3 [4] = test: as above
HepG2 [5] = test: as above
Vero E6 [6] = test: cell viability relative to DMSO; higher = less toxic
U2OS [7] = test: as above
Caco-2 [8] = test: as above
Calu-3 [9] = test: as above
HepG2 [10] = test: as above
Vero E6 [11] = test: relative viability EC50 (midpoint between 100% and the lowest measured viability); higher = less toxic
U2OS [12] = test: as above
Caco-2 [13] = test: as above
Calu-3 [14] = test: as above
HepG2 [15] = test: as above

| Compound | drug sensitivity score (Vero E6 [1]) | drug sensitivity score (U2OS [2]) | drug sensitivity score (Caco-2 [3]) | drug sensitivity score (Calu-3 [4]) | drug sensitivity score (HepG2 [5]) | cell viability (Vero E6 [6]; 1 nM) [%] | cell viability (Vero E6 [6]; 10 nM) [%] | cell viability (Vero E6 [6]; 100 nM) [%] | cell viability (Vero E6 [6]; 1000 nM) [%] | cell viability (Vero E6 [6]; 10000 nM) [%] | cell viability (U2OS [7]; 1 nM) [%] | cell viability (U2OS [7]; 10 nM) [%] | cell viability (U2OS [7]; 100 nM) [%] | cell viability (U2OS [7]; 1000 nM) [%] | cell viability (U2OS [7]; 10000 nM) [%] | cell viability (Caco-2 [8]; 1 nM) [%] | cell viability (Caco-2 [8]; 10 nM) [%] | cell viability (Caco-2 [8]; 100 nM) [%] | cell viability (Caco-2 [8]; 1000 nM) [%] | cell viability (Caco-2 [8]; 10000 nM) [%] | cell viability (Calu-3 [9]; 1 nM) [%] | cell viability (Calu-3 [9]; 10 nM) [%] | cell viability (Calu-3 [9]; 100 nM) [%] | cell viability (Calu-3 [9]; 1000 nM) [%] | cell viability (Calu-3 [9]; 10000 nM) [%] | cell viability (HepG2 [10]; 1 nM) [%] | cell viability (HepG2 [10]; 10 nM) [%] | cell viability (HepG2 [10]; 100 nM) [%] | cell viability (HepG2 [10]; 1000 nM) [%] | cell viability (HepG2 [10]; 10000 nM) [%] | relative viability EC50 (Vero E6 [11]) [µM] | relative viability EC50 (U2OS [12]) [µM] | relative viability EC50 (Caco-2 [13]) [µM] | relative viability EC50 (Calu-3 [14]) [µM] | relative viability EC50 (HepG2 [15]) [µM] |
| --- | --- | --- | --- | --- | --- | --- | --- | --- | --- | --- | --- | --- | --- | --- | --- | --- | --- | --- | --- | --- | --- | --- | --- | --- | --- | --- | --- | --- | --- | --- | --- | --- | --- | --- | --- |
| NNc1nncc2ccccc12 [hydralazine] | 0 | 0 | 0 | 2.2 | 0 | 98.7 | 101 | 105 | 105 | 99.3 | 98.4 | 102 | 99.4 | 101 | 95.8 | 104 | 105 | 91.4 | 108 | 88.3 | 95 | 102 | 89 | 85.3 | 85 | 98.4 | 106 | 128 | 98.5 | 114 | > 10 | > 10 | > 10 | > 10 | > 10 |
| CCCCC(=O)O[C@]1(C(=O)CO)CC[C@H]2[C@@H]3CCC4=CC(=O)CC[C@]4(C)[C@H]3[C@@H](O)C[C@@]21C [hydrocortisone-valerate] | 0 | 0 | 0 | 0 | 0 | 107 | 105 | 101 | 98.5 | 101 | 95.5 | 97.1 | 92.5 | 100 | 93.2 | 103 | 99 | 88 | 109 | 99.3 | 87.3 | 97.1 | 86.5 | 95.9 | 103 | 103 | 97 | 101 | 96.5 | 103 | > 10 | > 10 | > 10 | > 10 | > 10 |
| CC(C)C(=O)c1c(C(C)C)nn2ccccc12 [ibudilast] | 0 | 0 | 0 | 0 | 0 | 96.8 | 97.4 | 98.9 | 94.7 | 103 | 94.6 | 102 | 97.4 | 104 | 104 | 91.2 | 89.9 | 93.3 | 102 | 107 | 95.7 | 94.1 | 93 | 104 | 107 | 94.5 | 101 | 109 | 88.8 | 99.2 | > 10 | > 10 | > 10 | > 10 | > 10 |
| COCC(=O)Nc1c(I)c(C(=O)NCC(O)CO)c(I)c(C(=O)N(C)CC(O)CO)c1I (stereo not given) [iopromide] | 0 | 0 | 0 | 0 | 0 | 100 | 104 | 93.9 | 94.9 | 104 | 99 | 101 | 99.1 | 100 | 95.1 | 93.6 | 101 | 93.7 | 98.4 | 102 | 110 | 104 | 93.1 | 94.9 | 96.1 | 98 | 89.1 | 89.1 | 85.2 | 95.6 | > 10 | > 10 | > 10 | > 10 | > 10 |
| CCOC(=O)C1=C(C)NC(C)=C(C(=O)OCC)C1c1ccccc1/C=C/C(=O)OC(C)(C)C [lacidipine] | 0 | 0 | 2.5 | 0 | 0 | 92 | 99.4 | 89.7 | 99.6 | 106 | 96.6 | 95.2 | 98.5 | 92.1 | 97.5 | 97.4 | 91 | 90.2 | 84.7 | 79 | 97 | 89.8 | 106 | 93 | 91 | 96.2 | 102 | 96.8 | 114 | 91.9 | > 10 | > 10 | > 10 | > 10 | > 10 |
| N#C/C(=C1/SCC(c2ccccc2Cl)S1)n1ccnc1 (stereo not given) [lanoconazole] | 0 | 0 | 0 | 0 | 0.8 | 100 | 99.1 | 95.2 | 92.5 | 94.9 | 99.1 | 99.9 | 97.4 | 96.8 | 89.8 | 96.6 | 106 | 99.7 | 101 | 102 | 96.9 | 103 | 103 | 108 | 86.6 | 93.3 | 95.5 | 99.9 | 97.6 | 81.6 | > 10 | > 10 | > 10 | > 10 | > 10 |
| CCC(=O)O[C@@](Cc1ccccc1)(c1ccccc1)[C@@H](C)CN(C)C [levopropoxyphene] | 0 | 0 | 0 | 0 | 0 | 100 | 100 | 96 | 101 | 95.4 | 104 | 101 | 101 | 98.8 | 100 | 99.3 | 103 | 98.3 | 100 | 102 | 104 | 90.1 | 94.7 | 102 | 104 | 94.3 | 97.1 | 96.4 | 94.7 | 89.4 | > 10 | > 10 | > 10 | > 10 | > 10 |
| CCOC(=O)Nc1nc2ccccc2[nH]1 [lobendazole] | 0 | 0 | 0 | 0 | 0 | 96.9 | 101 | 87.6 | 103 | 103 | 97.1 | 96.1 | 98.2 | 94.8 | 99.7 | 97.9 | 91.6 | 96.4 | 109 | 95.5 | 100 | 106 | 102 | 98.4 | 95.9 | 94.6 | 113 | 104 | 111 | 98.9 | > 10 | > 10 | > 10 | > 10 | > 10 |
| CC(C(=O)O)c1ccc(CC2CCCC2=O)cc1 (stereo not given) [loxoprofen] | 0 | 0 | 0 | 0 | 0 | 106 | 97.4 | 98.4 | 92.8 | 94.2 | 108 | 92.7 | 98.3 | 94.8 | 96.9 | 98.6 | 90 | 97.1 | 88.1 | 96 | 101 | 110 | 104 | 108 | 93.6 | 92.1 | 104 | 97 | 108 | 94.3 | > 10 | > 10 | > 10 | > 10 | > 10 |
| O=C1CCC[C@@H]2[C@H]3C[C@@H](CN12)[C@@H]1CCCCN1C3 [lupanine] | 0 | 0 | 1.8 | 0 | 0 | 92.1 | 97.9 | 93.8 | 98.1 | 95.7 | 101 | 96.2 | 98.6 | 94 | 100 | 103 | 92.8 | 90.4 | 87.2 | 91.4 | 87.2 | 96.8 | 99.5 | 95.5 | 94.4 | 99.4 | 95.7 | 93 | 110 | 93.7 | > 10 | > 10 | > 10 | > 10 | > 10 |
| N=C(N)NC(=N)Nc1cccc(Cl)c1 [m-chlorophenylbiguanide] | 0 | 0 | 0 | 0 | 0 | 100 | 101 | 95.9 | 101 | 96.9 | 94.3 | 98.9 | 103 | 95.9 | 101 | 101 | 92.2 | 100 | 101 | 97.1 | 108 | 94.7 | 106 | 98 | 116 | 112 | 106 | 102 | 105 | 99.2 | > 10 | > 10 | > 10 | > 10 | > 10 |
